Test results taken from the supplement of paper PMC10883282.

Assays:
Test in all cases: relative viability vs DMSO control (72 h) (fraction); higher = more viable cells
RD-ES = test system: RD-ES
How it was run: (§1)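 Sarcoma cell lines were plated in 384 wells to reach 80–90% confluence, treated after 24 h with 2.5 µl of serially diluted compound and held 72 h at 37 °C, 5% CO2. Relative viability was taken as percent growth from ATPLite readings, averaged over up to triplicate wells. The values were rescaled so that 1 marks full and 0 marks none.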

SW982 = test system: SW982
How it was run: as §1

HT1080 = test system: HT1080
How it was run: as §1

SW1353 = test system: SW1353
How it was run: as §1

G401 = test system: G401
How it was run: as §1

VA-ES-BJ = test system: VA-ES-BJ
How it was run: as §1

SK-LMS-1 = test system: SK-LMS-1
How it was run: as §1

SK-ES-1 = test system: SK-ES-1
How it was run: as §1

RD = test system: RD
How it was run: as §1

KHOS-240S = test system: KHOS-240S
How it was run: as §1

MES-SA = test system: MES-SA
How it was run: as §1

SYO-1 = test system: SYO-1
How it was run: as §1

C[C@@H]1COC(Nc2ccc3ncnc(Nc4ccc(OCc5nccs5)c(Cl)c4)c3c2)=N1 [Varlitinib]
Details	relative viability
G401, 0.00017 µM	0.96
G401, 0.00051 µM	0.979
G401, 0.00152 µM	0.993
G401, 0.00457 µM	0.966
G401, 0.01372 µM	0.981
G401, 0.04115 µM	0.993
G401, 0.1235 µM	0.973
G401, 0.3704 µM	0.939
G401, 1.111 µM	0.8904
G401, 3.333 µM	0.8118
G401, 10 µM	0.663
HT1080, 0.00017 µM	1.06
HT1080, 0.00051 µM	1.03
HT1080, 0.00152 µM	1.05
HT1080, 0.00457 µM	1.05
HT1080, 0.01372 µM	1.04
HT1080, 0.04115 µM	1.06
HT1080, 0.1235 µM	1
HT1080, 0.3704 µM	1.01
HT1080, 1.111 µM	1.02
HT1080, 3.333 µM	0.99
HT1080, 10 µM	0.97
KHOS-240S, 0.00017 µM	1.02
KHOS-240S, 0.00051 µM	1.03
KHOS-240S, 0.00152 µM	1.02
KHOS-240S, 0.00457 µM	1.05
KHOS-240S, 0.01372 µM	1.048
KHOS-240S, 0.04115 µM	1.05
KHOS-240S, 0.1235 µM	1.05
KHOS-240S, 0.3704 µM	0.996
KHOS-240S, 1.111 µM	0.9899
KHOS-240S, 3.333 µM	0.947
KHOS-240S, 10 µM	0.849
MES-SA, 0.00017 µM	0.965
MES-SA, 0.00051 µM	0.965
MES-SA, 0.00152 µM	0.934
MES-SA, 0.00457 µM	0.97
MES-SA, 0.01372 µM	0.946
MES-SA, 0.04115 µM	0.9545
MES-SA, 0.1235 µM	0.945
MES-SA, 0.3704 µM	0.888
MES-SA, 1.111 µM	0.888
MES-SA, 3.333 µM	0.807
MES-SA, 10 µM	0.45
RD, 0.00017 µM	0.983
RD, 0.00051 µM	0.984
RD, 0.00152 µM	0.997
RD, 0.00457 µM	1.02
RD, 0.01372 µM	0.998
RD, 0.04115 µM	1.02
RD, 0.1235 µM	1.05
RD, 0.3704 µM	1
RD, 1.111 µM	1.04
RD, 3.333 µM	1.05
RD, 10 µM	1.05
RD-ES, 0.00017 µM	0.968
RD-ES, 0.00051 µM	1.01
RD-ES, 0.00152 µM	0.957
RD-ES, 0.00457 µM	0.985
RD-ES, 0.01372 µM	0.975
RD-ES, 0.04115 µM	0.991
RD-ES, 0.1235 µM	1
RD-ES, 0.3704 µM	0.948
RD-ES, 1.111 µM	0.961
RD-ES, 3.333 µM	0.973
RD-ES, 10 µM	0.89
SK-ES-1, 0.00017 µM	0.975
SK-ES-1, 0.00051 µM	0.974
SK-ES-1, 0.00152 µM	0.976
SK-ES-1, 0.00457 µM	0.99
SK-ES-1, 0.01372 µM	0.971
SK-ES-1, 0.04115 µM	0.997
SK-ES-1, 0.1235 µM	0.967
SK-ES-1, 0.3704 µM	0.962
SK-ES-1, 1.111 µM	0.948
SK-ES-1, 3.333 µM	0.873
SK-ES-1, 10 µM	0.671
SK-LMS-1, 0.00017 µM	1.01
SK-LMS-1, 0.00051 µM	1.033
SK-LMS-1, 0.00152 µM	1.06
SK-LMS-1, 0.00457 µM	1
SK-LMS-1, 0.01372 µM	1.02
SK-LMS-1, 0.04115 µM	1.04
SK-LMS-1, 0.1235 µM	1.04
SK-LMS-1, 0.3704 µM	1.04
SK-LMS-1, 1.111 µM	1.04
SK-LMS-1, 3.333 µM	0.976
SK-LMS-1, 10 µM	0.872
SW982, 0.00017 µM	0.982
SW982, 0.00051 µM	1.01
SW982, 0.00152 µM	0.966
SW982, 0.00457 µM	0.974
SW982, 0.01372 µM	0.986
SW982, 0.04115 µM	0.993
SW982, 0.1235 µM	0.984
SW982, 0.3704 µM	0.932
SW982, 1.111 µM	0.918
SW982, 3.333 µM	0.949
SW982, 10 µM	0.883
SW1353, 0.00017 µM	1.03
SW1353, 0.00051 µM	0.981
SW1353, 0.00152 µM	0.968
SW1353, 0.00457 µM	1.04
SW1353, 0.01372 µM	0.978
SW1353, 0.04115 µM	1.01
SW1353, 0.1235 µM	0.947
SW1353, 0.3704 µM	0.886
SW1353, 1.111 µM	0.824
SW1353, 3.333 µM	0.812
SW1353, 10 µM	0.738
SYO-1, 0.00017 µM	1.04
SYO-1, 0.00051 µM	1.04
SYO-1, 0.00152 µM	1.03
SYO-1, 0.00457 µM	1.03
SYO-1, 0.01372 µM	1.02
SYO-1, 0.04115 µM	1.03
SYO-1, 0.1235 µM	1.02
SYO-1, 0.3704 µM	1.02
SYO-1, 1.111 µM	1.01
SYO-1, 3.333 µM	0.941
SYO-1, 10 µM	0.55
VA-ES-BJ, 0.00017 µM	1.06
VA-ES-BJ, 0.00051 µM	1.06
VA-ES-BJ, 0.00152 µM	1.05
VA-ES-BJ, 0.00457 µM	1.04
VA-ES-BJ, 0.01372 µM	1.08
VA-ES-BJ, 0.04115 µM	1.07
VA-ES-BJ, 0.1235 µM	1.12
VA-ES-BJ, 0.3704 µM	1.09
VA-ES-BJ, 1.111 µM	1.05
VA-ES-BJ, 3.333 µM	1.06
VA-ES-BJ, 10 µM	0.96

CC[C@@H]1C(=O)N(C)c2cnc(Nc3ccc(C(=O)N[C@H]4CC[C@H](N5CCN(CC6CC6)CC5)CC4)cc3OC)nc2N1C(C)C [Volasertib]
Details	relative viability
G401, 0.00017 µM	1.01
G401, 0.00051 µM	1.03
G401, 0.00152 µM	1.05
G401, 0.00457 µM	1.03
G401, 0.01372 µM	1.02
G401, 0.04115 µM	0.845
G401, 0.1235 µM	0.5129
G401, 0.3704 µM	0.427
G401, 1.111 µM	0.338
G401, 3.333 µM	0.243
G401, 10 µM	0.00683
HT1080, 0.00017 µM	1.057
HT1080, 0.00051 µM	1.06
HT1080, 0.00152 µM	1.06
HT1080, 0.00457 µM	1.04
HT1080, 0.01372 µM	1.03
HT1080, 0.04115 µM	0.9978
HT1080, 0.1235 µM	0.239
HT1080, 0.3704 µM	0.13
HT1080, 1.111 µM	0.139
HT1080, 3.333 µM	0.0909
HT1080, 10 µM	0.00783
KHOS-240S, 0.00017 µM	1.07
KHOS-240S, 0.00051 µM	1.054
KHOS-240S, 0.00152 µM	1.06
KHOS-240S, 0.00457 µM	1.06
KHOS-240S, 0.01372 µM	0.979
KHOS-240S, 0.04115 µM	0.319
KHOS-240S, 0.1235 µM	0.221
KHOS-240S, 0.3704 µM	0.189
KHOS-240S, 1.111 µM	0.171
KHOS-240S, 3.333 µM	0.122
KHOS-240S, 10 µM	0.0197
MES-SA, 0.00017 µM	0.938
MES-SA, 0.00051 µM	0.966
MES-SA, 0.00152 µM	0.936
MES-SA, 0.00457 µM	0.932
MES-SA, 0.01372 µM	0.924
MES-SA, 0.04115 µM	0.637
MES-SA, 0.1235 µM	0.173
MES-SA, 0.3704 µM	0.0889
MES-SA, 1.111 µM	0.0861
MES-SA, 3.333 µM	0.072
MES-SA, 10 µM	0.0076
RD, 0.00017 µM	1.132
RD, 0.00051 µM	1.12
RD, 0.00152 µM	1.129
RD, 0.00457 µM	1.14
RD, 0.01372 µM	1.07
RD, 0.04115 µM	0.363
RD, 0.1235 µM	0.212
RD, 0.3704 µM	0.18
RD, 1.111 µM	0.169
RD, 3.333 µM	0.119
RD, 10 µM	0.0206
RD-ES, 0.00017 µM	1.02
RD-ES, 0.00051 µM	1
RD-ES, 0.00152 µM	1.01
RD-ES, 0.00457 µM	1.028
RD-ES, 0.01372 µM	0.987
RD-ES, 0.04115 µM	0.447
RD-ES, 0.1235 µM	0.0248
RD-ES, 0.3704 µM	0.0217
RD-ES, 1.111 µM	0.0279
RD-ES, 3.333 µM	0.0346
RD-ES, 10 µM	0.0126
SK-ES-1, 0.00017 µM	1.09
SK-ES-1, 0.00051 µM	1.1
SK-ES-1, 0.00152 µM	1.08
SK-ES-1, 0.00457 µM	1.1
SK-ES-1, 0.01372 µM	1.05
SK-ES-1, 0.04115 µM	0.495
SK-ES-1, 0.1235 µM	0.0483
SK-ES-1, 0.3704 µM	0.0522
SK-ES-1, 1.111 µM	0.0871
SK-ES-1, 3.333 µM	0.114
SK-ES-1, 10 µM	0.0116
SK-LMS-1, 0.00017 µM	1.04
SK-LMS-1, 0.00051 µM	1.01
SK-LMS-1, 0.00152 µM	1.05
SK-LMS-1, 0.00457 µM	1.04
SK-LMS-1, 0.01372 µM	1
SK-LMS-1, 0.04115 µM	0.551
SK-LMS-1, 0.1235 µM	0.492
SK-LMS-1, 0.3704 µM	0.453
SK-LMS-1, 1.111 µM	0.459
SK-LMS-1, 3.333 µM	0.3806
SK-LMS-1, 10 µM	0.0152
SW982, 0.00017 µM	1.047
SW982, 0.00051 µM	1.07
SW982, 0.00152 µM	1.08
SW982, 0.00457 µM	1.06
SW982, 0.01372 µM	1.01
SW982, 0.04115 µM	0.353
SW982, 0.1235 µM	0.259
SW982, 0.3704 µM	0.209
SW982, 1.111 µM	0.182
SW982, 3.333 µM	0.15
SW982, 10 µM	0.0111
SW1353, 0.00017 µM	0.972
SW1353, 0.00051 µM	0.954
SW1353, 0.00152 µM	0.945
SW1353, 0.00457 µM	0.949
SW1353, 0.01372 µM	0.958
SW1353, 0.04115 µM	0.902
SW1353, 0.1235 µM	0.635
SW1353, 0.3704 µM	0.52
SW1353, 1.111 µM	0.4419
SW1353, 3.333 µM	0.3712
SW1353, 10 µM	0.063
SYO-1, 0.00017 µM	0.966
SYO-1, 0.00051 µM	0.974
SYO-1, 0.00152 µM	0.958
SYO-1, 0.00457 µM	0.912
SYO-1, 0.01372 µM	0.549
SYO-1, 0.04115 µM	0.352
SYO-1, 0.1235 µM	0.311
SYO-1, 0.3704 µM	0.131
SYO-1, 1.111 µM	0.00893
SYO-1, 3.333 µM	-0.0446
SYO-1, 10 µM	-0.0423
VA-ES-BJ, 0.00017 µM	1.04
VA-ES-BJ, 0.00051 µM	1.04
VA-ES-BJ, 0.00152 µM	1.07
VA-ES-BJ, 0.00457 µM	1.06
VA-ES-BJ, 0.01372 µM	1.04
VA-ES-BJ, 0.04115 µM	0.486
VA-ES-BJ, 0.1235 µM	0.234
VA-ES-BJ, 0.3704 µM	0.108
VA-ES-BJ, 1.111 µM	0.0943
VA-ES-BJ, 3.333 µM	0.074
VA-ES-BJ, 10 µM	-0.00633
